From the OligoGym collection
HELM strings list units from the 5' end as sugar, base in round brackets, then linkage (d deoxyribose, r ribose, m 2'-O-methyl, p phosphodiester). Strings are as the collection lists them, not checked against the first reports. ss, as = sense and antisense strand; [lna] = locked nucleic acid (LNA); [una] = unlocked nucleic acid; [s4r] = 4'-thioribose; [fl2r] = 2'-fluoro

Conditions: siRNA
Further: test system not given here.

Substance	target mRNA knockdown [%]
RNA1{m(A)p.r(A)p.m(G)p.r(G)p.m(A)p.r(C)p.m(C)p.r(U)p.m(A)p.r(G)p.m(A)p.r(G)p.m(G)p.r(A)p.m(G)p.r(U)p.m(C)p.r(A)p.m(C)p.r(T)p.r(T)}|RNA2{m(G)p.r(U)p.m(G)p.r(A)p.r(C)p.r(U)p.r(C)p.r(C)p.r(U)p.r(C)p.r(U)p.r(A)p.m(G)p.m(G)p.r(U)p.r(C)p.r(C)p.r(U)p.r(U)p.r(T)p.r(T)}$$$RNA1{StrandType:ss}|RNA2{StrandType:as}$	36
RNA1{m(G)p.r(C)p.m(G)p.m(A)p.m(G)p.r(C)p.m(A)p.m(G)p.m(A)p.m(G)p.m(A)p.m(A)p.r(U)p.r(C)p.r(U)p.m(A)p.r(C)p.r(C)p.r(U)p.r(T)p.r(T)}|RNA2{r(A)p.r(G)p.r(G)p.r(U)p.r(A)p.r(G)p.r(A)p.r(U)p.r(U)p.r(C)p.r(U)p.r(C)p.r(U)p.r(G)p.r(C)p.r(U)p.r(C)p.r(G)p.r(C)p.r(T)p.r(T)}$$$RNA1{StrandType:ss}|RNA2{StrandType:as}$	65
RNA1{r(U)p.r(G)p.r(A)p.r(G)p.r(A)p.r(G)p.r(A)p.r(A)p.r(A)p.r(G)p.r(C)p.r(A)p.r(C)p.r(A)p.r(G)p.r(A)p.r(A)p.r(A)p.r(A)p.d(T)p.d(T)}|RNA2{[lna](T)p.r(U)p.r(U)p.r(U)p.r(C)p.r(U)p.r(G)p.r(U)p.r(G)p.r(C)p.r(U)p.r(U)p.r(U)p.r(C)p.r(U)p.r(C)p.r(U)p.r(C)p.r(A)p.[lna](T)p.[lna](T)}$$$RNA1{StrandType:ss}|RNA2{StrandType:as}$	34
RNA1{r(C)p.r(G)p.r(A)p.r(C)p.r(G)p.r(A)p.r(U)p.r(U)p.r(C)p.r(U)p.r(U)p.r(C)p.[fl2r](U)p.r(A)p.r(C)p.r(U)p.r(C)p.r(A)p.r(A)p.r(T)p.r(T)}|RNA2{r(U)p.r(U)p.r(G)p.r(A)p.r(G)p.[fl2r](U)p.r(A)p.r(G)p.r(A)p.r(A)p.r(G)p.r(A)p.r(A)p.r(U)p.r(C)p.r(G)p.r(U)p.r(C)p.r(G)p.r(T)p.r(T)}$$$RNA1{StrandType:ss}|RNA2{StrandType:as}$	67
RNA1{m(U)p.r(U)p.m(A)p.r(A)p.m(A)p.r(G)p.m(G)p.r(G)p.m(C)p.r(G)p.m(A)p.r(G)p.m(A)p.r(A)p.m(G)p.r(A)p.m(C)p.r(C)p.m(G)p.r(T)p.r(T)}|RNA2{r(C)p.r(G)p.r(G)p.r(U)p.r(C)p.r(U)p.r(U)p.r(C)p.r(U)p.r(C)p.r(G)p.r(C)p.r(C)p.r(C)p.r(U)p.r(U)p.r(U)p.r(A)p.r(A)p.r(T)p.r(T)}$$$RNA1{StrandType:ss}|RNA2{StrandType:as}$	67
RNA1{r(A)p.r(G)p.r(C)p.r(C)p.r(U)p.r(C)p.r(C)p.r(A)p.r(A)p.r(A)p.r(C)p.r(U)p.r(C)p.r(C)p.r(U)p.r(A)p.r(G)p.r(C)p.r(U)p.r(T)p.r(T)}|RNA2{r(A)p.r(G)p.r(C)p.m(U)p.r(A)p.r(G)p.r(G)p.r(A)p.r(G)p.r(U)p.r(U)p.m(U)p.r(G)p.r(G)p.r(A)p.r(G)p.r(G)p.r(C)p.r(U)p.r(T)p.r(T)}$$$RNA1{StrandType:ss}|RNA2{StrandType:as}$	70
RNA1{r(A)p.r(G)p.r(A)p.r(G)p.r(G)p.r(A)p.r(C)p.r(C)p.r(U)p.m(A)p.r(G)p.r(A)p.r(A)p.r(G)p.r(G)p.r(C)p.r(G)p.r(G)p.r(C)p.r(T)p.r(T)}|RNA2{r(G)p.r(C)p.r(C)p.r(G)p.r(C)p.r(C)p.r(U)p.r(U)p.r(C)p.r(U)p.r(A)p.r(G)p.r(G)p.r(U)p.r(C)p.r(C)p.r(U)p.r(C)p.r(U)p.r(T)p.r(T)}$$$RNA1{StrandType:ss}|RNA2{StrandType:as}$	92
RNA1{r(G)p.[fl2r](C)p.r(A)p.r(G)p.[fl2r](C)p.r(A)p.[fl2r](C)p.r(G)p.r(A)p.[fl2r](C)p.[fl2r](U)p.[fl2r](U)p.[fl2r](C)p.[fl2r](U)p.[fl2r](U)p.[fl2r](C)p.r(A)p.r(A)p.r(G)p.r(T)p.r(T)}|RNA2{[fl2r](C)p.[fl2r](U)p.[fl2r](U)p.r(G)p.r(A)p.r(A)p.r(G)p.r(A)p.r(A)p.r(G)p.[fl2r](U)p.[fl2r](C)p.r(G)p.[fl2r](U)p.r(G)p.[fl2r](C)p.[fl2r](U)p.r(G)p.[fl2r](C)p.r(T)p.r(T)}$$$RNA1{StrandType:ss}|RNA2{StrandType:as}$	83
RNA1{r(C)p.r(G)p.r(U)p.r(A)p.r(C)p.r(G)p.r(C)p.r(G)p.r(G)p.r(A)p.r(A)p.r(U)p.r(A)p.r(C)p.r(U)p.r(U)p.r(C)p.r(G)p.r(A)p.r(T)p.r(T)}|RNA2{[s4r](U)p.[s4r](C)p.r(G)p.r(A)p.r(A)p.r(G)p.r(U)p.r(A)p.r(U)p.r(U)p.r(C)p.r(C)p.r(G)p.r(C)p.r(G)p.r(U)p.r(A)p.r(C)p.r(G)p.r(T)p.r(T)}$$$RNA1{StrandType:ss}|RNA2{StrandType:as}$	95
RNA1{r(C)p.r(G)p.r(U)p.r(A)p.r(C)p.r(G)p.r(C)p.r(G)p.r(G)p.r(A)p.r(A)p.r(U)p.r(A)p.[s4r](C)p.[s4r](U)p.[s4r](U)p.[s4r](C)p.[s4r](G)p.[s4r](A)p.r(T)p.r(T)}|RNA2{r(U)p.r(C)p.r(G)p.r(A)p.r(A)p.r(G)p.r(U)p.r(A)p.r(U)p.r(U)p.r(C)p.r(C)p.r(G)p.r(C)p.r(G)p.r(U)p.r(A)p.r(C)p.r(G)p.r(T)p.r(T)}$$$RNA1{StrandType:ss}|RNA2{StrandType:as}$	93.8
RNA1{r(C)p.[fl2r](U)p.r(A)p.r(G)p.r(A)p.r(G)p.r(G)p.r(A)p.r(U)p.r(C)p.r(U)p.r(U)p.r(G)p.r(A)p.r(A)p.r(G)p.r(A)p.r(C)p.r(C)p.r(T)p.r(T)}|RNA2{r(G)p.r(G)p.r(U)p.r(C)p.r(U)p.r(U)p.r(C)p.r(A)p.r(A)p.r(G)p.r(A)p.r(U)p.r(C)p.r(C)p.r(U)p.r(C)p.r(U)p.r(A)p.r(G)p.r(T)p.r(T)}$$$RNA1{StrandType:ss}|RNA2{StrandType:as}$	81
RNA1{r(A)p.r(G)p.r(C)p.r(U)p.r(C)p.r(U)p.r(U)p.r(U)p.r(G)p.r(U)p.r(C)p.m(A)p.r(C)p.r(C)p.r(U)p.r(C)p.r(U)p.r(C)p.r(U)p.r(T)p.r(T)}|RNA2{r(A)p.r(G)p.r(A)p.r(G)p.r(A)p.r(G)p.r(G)p.r(U)p.r(G)p.r(A)p.m(C)p.m(A)p.r(A)p.r(A)p.r(G)p.r(A)p.r(G)p.r(C)p.r(U)p.r(T)p.r(T)}$$$RNA1{StrandType:ss}|RNA2{StrandType:as}$	37
RNA1{r(A)p.r(U)p.r(C)p.r(U)p.r(G)p.r(A)p.r(A)p.r(G)p.r(A)p.r(A)p.r(G)p.r(G)p.r(A)p.r(G)p.r(A)p.r(A)p.r(A)p.r(A)p.r(A)p.d(T)p.d(T)}|RNA2{r(U)p.r(U)p.r(U)p.r(U)p.r(U)p.r(C)p.r(U)p.r(C)p.r(C)p.r(U)p.r(U)p.r(C)p.r(U)p.r(U)p.r(C)p.r(A)p.r(G)p.r(A)p.r(U)p.d(T)p.d(T)}$$$RNA1{StrandType:ss}|RNA2{StrandType:as}$	95
RNA1{r(G)p.r(U)p.r(A)p.r(U)p.r(G)p.r(A)p.r(C)p.r(C)p.r(G)p.r(A)p.r(C)p.r(U)p.r(A)p.r(C)p.r(G)p.r(C)p.r(G)p.r(U)p.r(A)p.r(T)p.r(T)}|RNA2{r(U)p.r(U)p.r(C)p.r(A)p.r(G)p.r(U)p.r(G)p.r(U)p.[una](G)p.r(A)p.r(U)p.r(G)p.r(A)p.r(C)p.r(A)p.r(C)p.r(U)p.r(U)p.r(G)p.r(T)p.r(T)}$$$RNA1{StrandType:ss}|RNA2{StrandType:as}$	89
RNA1{r(A)p.r(A)p.r(A)p.r(C)p.r(C)p.r(U)p.r(C)p.m(A)p.r(G)p.r(C)p.r(C)p.r(C)p.r(U)p.r(A)p.r(A)p.r(C)p.r(G)p.r(G)p.r(U)p.r(T)p.r(T)}|RNA2{r(A)p.r(C)p.r(C)p.r(G)p.r(U)p.m(U)p.r(A)p.r(G)p.r(G)p.r(G)p.r(C)p.r(U)p.r(G)p.r(A)p.r(G)p.r(G)p.r(U)p.r(U)p.r(U)p.r(T)p.r(T)}$$$RNA1{StrandType:ss}|RNA2{StrandType:as}$	70
RNA1{m(A)p.m(A)p.r(C)p.r(C)p.r(C)p.m(A)p.r(C)p.r(C)p.m(A)p.r(C)p.m(A)p.r(G)p.r(C)p.m(U)p.m(A)p.r(G)p.m(A)p.m(A)p.r(C)p.m(U)p.m(U)}|RNA2{m(A)p.m(A)p.r(G)p.m(U)p.m(U)p.r(C)p.m(U)p.m(A)p.r(G)p.r(C)p.m(U)p.r(G)p.m(U)p.r(G)p.r(G)p.m(U)p.r(G)p.r(G)p.r(G)p.m(U)p.m(U)}$$$RNA1{StrandType:ss}|RNA2{StrandType:as}$	7
RNA1{r(G)p.r(A)p.r(C)p.r(A)p.r(A)p.r(G)p.r(G)p.r(G)p.r(A)p.r(A)p.r(G)p.r(G)p.r(U)p.m(U)p.r(A)p.r(G)p.r(C)p.r(C)p.r(U)p.r(T)p.r(T)}|RNA2{r(A)p.r(G)p.r(G)p.r(C)p.m(U)p.r(A)p.r(A)p.r(C)p.r(C)p.r(U)p.r(U)p.r(C)p.r(C)p.r(C)p.r(U)p.r(U)p.r(G)p.r(U)p.r(C)p.r(T)p.r(T)}$$$RNA1{StrandType:ss}|RNA2{StrandType:as}$	72
RNA1{r(G)p.r(U)p.r(U)p.r(C)p.r(A)p.r(C)p.r(G)p.r(U)p.r(C)p.r(C)p.r(U)p.r(A)p.r(C)p.r(C)p.r(C)p.r(C)p.r(U)p.r(U)p.r(U)p.r(T)p.r(T)}|RNA2{r(A)p.r(A)p.r(A)p.r(G)p.r(G)p.r(G)p.r(G)p.[fl2r](U)p.r(A)p.r(G)p.r(G)p.r(A)p.r(C)p.r(G)p.r(U)p.r(G)p.r(A)p.r(A)p.r(C)p.r(T)p.r(T)}$$$RNA1{StrandType:ss}|RNA2{StrandType:as}$	69
RNA1{m(U)p.r(U)p.m(A)p.r(C)p.m(A)p.r(A)p.m(A)p.r(G)p.m(G)p.r(A)p.m(U)p.r(C)p.m(U)p.r(C)p.m(C)p.r(U)p.m(C)p.r(C)p.m(C)p.r(T)p.r(T)}|RNA2{r(G)p.r(G)p.r(G)p.r(A)p.r(G)p.r(G)p.r(A)p.r(G)p.r(A)p.r(U)p.m(C)p.m(C)p.r(U)p.r(U)p.r(U)p.r(G)p.r(U)p.r(A)p.r(A)p.r(T)p.r(T)}$$$RNA1{StrandType:ss}|RNA2{StrandType:as}$	57
RNA1{r(C)p.r(U)p.m(C)p.r(A)p.r(A)p.r(A)p.r(U)p.m(C)p.r(A)p.r(A)p.r(G)p.r(G)p.r(C)p.r(C)p.r(G)p.r(G)p.r(A)p.r(G)p.r(U)p.r(T)p.r(T)}|RNA2{r(A)p.r(C)p.r(U)p.r(C)p.r(C)p.r(G)p.r(G)p.r(C)p.r(C)p.r(U)p.m(U)p.r(G)p.r(A)p.r(U)p.r(U)p.m(U)p.r(G)p.r(A)p.r(G)p.r(T)p.r(T)}$$$RNA1{StrandType:ss}|RNA2{StrandType:as}$	82
